Laboratory results reported in paper PMC8094907 (The Journal of Biological Chemistry, 2021).

B1: 7620 (Trypanosoma brucei brucei TREU927) (protein)
chain: MTSINAQPPNSATYPQDDHGSAEVVNLNAEVERPQPEEQKDGGGCFARVSLFMATIIPPGGIAASAFNIGSTTVGAGIFGLPAAANSSGLVMAMIYLIIITAMTIFSIYALGVAAERTNIRTYEGVARALLGPWGAYYTAATRAFFSFSACVAYVISVGDILSATLKGTNAPDFLKQKSGNRLLTSLMWLCFMLPLVIPRHIDSLRHVSTIAFILMIYMVLVVVVHSCMNGLPENIKNVSVGKDDNAEIILFNSGNRAIEGLGVFIFSYLFQITAYEVYMDMTNRSVGKFVLVVTIAMGMCLPMYALTAFFGYMDFGRNVTGSVLLQYDPVNYPAVMVGFVGVLVMLFVSYALLGLACRNALYDVIGWDFREVAFWKHCIAVVTLSIVMLLCGLFIPKITTVLGFAGSFCGGSLGFILPALFFMYSGGFTWQKVGPFYYISTYVLLITGVIAAVFGTGATIWAVTVG

Key:
7620 = molecular target: T1, 7620 (Trypanosoma brucei, UniProt Q57V83); assay type: cell-based; settings: pH 7.0, 30 °C, excess competitor
T1 construct: gene Tb08.30P3.140; full-length ORF, untagged, in pDR197; expressed in S. cerevisiae 22574d

[1] = substrate: O=C(O)[C@@H]1CCCN1; assay: cells, lysate or membranes; settings: pH 7.0, 30 °C, 100 mM glucose, labelled compound

Row | Molecule | relative uptake rate (%) 7620 | Km [1] [µM]
1 | C[C@H](N)C(=O)O [alanine] | proline being the best substrate, followed by alanine and cysteine | 
2 | N[C@@H](CS)C(=O)O [cysteine] | proline being the best substrate, followed by alanine and cysteine | 
3 | B1 |  | 600
